Reference: patent publication US12655175B2, “C17, C20, and C21 substituted neuroactive steroids and their methods of use” (Sage Therapeutics, LLC, priority 2016, dated 2026)

These compounds were tested against GABAA receptor (assay: Steroid inhibition of [35S]-TBPS binding). Conditions: rat brain cortical membranes, 3 nM [35S]-TBPS, in the presence of 5 mM GABA.
Method: Steroid Inhibition of TBPS Binding
Briefly, cortices are rapidly removed following decapitation of carbon dioxide-anesthetized Sprague-Dawley rats ([…]). The cortices are homogenized in 10 volumes of ice-cold 0.32 M sucrose using a glass/teflon homogenizer and centrifuged at 1500×g for 10 min at 4° C. The resultant supernatants are centrifuged at 10,000×g for 20 min at 4° C. to obtain the P2 pellets. The P2 pellets are resuspended in 200 mM NaCl/50 mM Na—K phosphate pH 7.4 buffer and centrifuged at 10,000×g for 10 min at 4° C. This washing procedure is repeated twice and the pellets are resuspended in 10 volumes of buffer. Aliquots ([…]) of the membrane suspensions are incubated with 3 nM [^35S]-TBPS and […] aliquots of test drug dissolved in dimethyl sulfoxide (DMSO) (final 0.5%) in the presence of 5 mM GABA. The incubation is brought to a final volume of 1.0 mL with buffer. […] Following a 90 min incubation at room temp, the assays are terminated by filtration through glass fiber filters (Schleicher and Schuell No. 32) using a cell harvester (Brandel) and rinsed three times with ice-cold buffer. Filter bound radioactivity is measured by liquid scintillation spectrometry. Non-linear curve fitting of the overall data for each drug averaged for each concentration is done using Prism (GraphPad).
Various compounds are or can be screened to determine their potential as modulators of [^35S]-TBPS binding in vitro. These assays are or can be performed in accordance with the above discussed procedures.

Row | SMILES | IC50
1 | CN(C(=O)[C@H]1CC[C@H]2[C@@H]3CC[C@@H]4C[C@](C)(O)CC[C@@H]4[C@H]3CC[C@]12C)C1CCCCC1 [Compound 9] | 100 to 500 nM
2 | C[C@@]1(O)CC[C@H]2[C@H](CC[C@@H]3[C@@H]2CC[C@]2(C)[C@@H](C(=O)CNc4ccc(F)cc4)CC[C@@H]32)C1 [Compound 40] | < 10 nM
3 | C[C@@]1(O)CC[C@@]2(C)[C@@H](CC[C@@H]3[C@@H]2CC[C@]2(C)[C@@H](Nc4ccc(F)cc4)CC[C@@H]32)C1 [Compound 89] | 100 to 500 nM
4 | C[C@@]1(O)CC[C@H]2[C@H](CC[C@@H]3[C@@H]2CC[C@]2(C)[C@@H](C(=O)Nc4ccccc4)CC[C@@H]32)C1 [Compound 3] | < 10 nM
5 | C[C@@]1(O)CC[C@H]2[C@H](CC[C@@H]3[C@@H]2CC[C@]2(C)[C@@H](c4ccncc4)CC[C@@H]32)C1 [Compound 103] | 10 to 50 nM
6 | CCOC[C@@]1(O)CC[C@H]2[C@H](CC[C@@H]3[C@@H]2CC[C@]2(C)[C@@H](C(=O)N4CCC[C@H]4c4ncco4)CC[C@@H]32)C1 [Compound 55] | > 500 nM
7 | C[C@@]1(O)CC[C@@]2(C)[C@@H](CC[C@@H]3[C@@H]2CC[C@]2(C)[C@@H](OCc4ccccc4)CC[C@@H]32)C1 [Compound 112] | > 500 nM
8 | COC[C@]12CC[C@](O)(C(F)(F)F)C[C@H]1CC[C@H]1[C@@H]3CC[C@H](C(=O)CNc4ccccc4)[C@@]3(C)CC[C@@H]12 [Compound 77] | 10 to 50 nM
9 | CCOC[C@@]1(O)CC[C@H]2[C@H](CC[C@@H]3[C@@H]2CC[C@]2(C)[C@@H](C(=O)N(C)[C@H](C)c4ccc(F)cc4)CC[C@@H]32)C1 [Compound 61] | 100 to 500 nM
10 | CN([C@H]1CC[C@H]2[C@@H]3CC[C@H]4C[C@](C)(O)CC[C@]4(C)[C@H]3CC[C@]12C)S(=O)(=O)c1ccccc1 [Compound 96] | > 500 nM
11 | C[C@@]1(O)CC[C@H]2[C@H](CC[C@@H]3[C@@H]2CC[C@]2(C)[C@@H](C4CCCC4)CC[C@@H]32)C1 [Compound 109] | > 500 nM
12 | C[C@@]1(O)CC[C@H]2[C@H](CC[C@@H]3[C@@H]2CC[C@]2(C)[C@@H](c4ccccc4)CC[C@@H]32)C1 [Compound 101] | 100 to 500 nM
13 | CN(CCc1ccccc1)C(=O)[C@H]1CC[C@H]2[C@@H]3CC[C@@H]4C[C@](C)(O)CC[C@@H]4[C@H]3CC[C@]12C [Compound 18] | 50 to 100 nM
14 | COC(=O)N(C)[C@H]1CC[C@H]2[C@@H]3CC[C@H]4C[C@](C)(O)CC[C@]4(C)[C@H]3CC[C@]12C [Compound 99] | > 500 nM
15 | CN(C(=O)[C@H]1CC[C@H]2[C@@H]3CC[C@@H]4C[C@](C)(O)CC[C@@H]4[C@H]3CC[C@]12C)c1ccccc1 [Compound 7] | > 500 nM
16 | C[C@@]1(O)CC[C@H]2[C@H](CC[C@@H]3[C@@H]2CC[C@]2(C)[C@@H](C(=O)N4CCCCC4)CC[C@@H]32)C1 [Compound 5] | 50 to 100 nM
17 | CN(CC(=O)[C@H]1CC[C@H]2[C@@H]3CC[C@@H]4C[C@](C)(O)CC[C@@H]4[C@H]3CC[C@]12C)c1ccc(F)cc1 [Compound 43] | 10 to 50 nM
18 | CO[C@H]1C[C@@]2(C)[C@@H](CC[C@@H]3[C@@H]2[C@@H](O)C[C@]2(C)[C@@H]([N+](=O)[O-])CC[C@@H]32)C[C@@H]1O [Compound 120] | 100 to 500 nM
19 | CC[C@H](NC(=O)[C@H]1CC[C@H]2[C@@H]3CC[C@@H]4C[C@](C)(O)CC[C@@H]4[C@H]3CC[C@]12C)c1ccc(F)cc1 (single isomer, unassigned) [Compound 33] | 100 to 500 nM
20 | CCOC[C@@]1(O)CC[C@H]2[C@H](CC[C@@H]3[C@@H]2CC[C@]2(C)[C@@H](C(=O)N(C)[C@@H](CC)c4ccc(F)cc4)CC[C@@H]32)C1 [Compound 57] | 100 to 500 nM
21 | CN(Cc1ccccc1)C(=O)[C@H]1CC[C@H]2[C@@H]3CC[C@@H]4C[C@](C)(O)CC[C@@H]4[C@H]3CC[C@]12C [Compound 4] | 10 to 50 nM
22 | CN(CC(=O)[C@H]1CC[C@H]2[C@@H]3CC[C@H]4C[C@](C)(O)CC[C@@H]4[C@H]3CC[C@]12C)c1ccccc1 [Compound 63] | 100 to 500 nM
23 | C[C@@]1(O)CC[C@H]2[C@H](CC[C@@H]3[C@@H]2CC[C@]2(C)[C@@H](C(=O)N4CCCCCC4)CC[C@@H]32)C1 [Compound 23] | 100 to 500 nM

Row | SMILES | IC50
24 | CCOC[C@@]1(O)CC[C@H]2[C@H](CC[C@@H]3[C@@H]2CC[C@]2(C)[C@@H](C(=O)N(C)[C@H](C)c4ccc(C#N)cc4)CC[C@@H]32)C1 [Compound 49] | 50 to 100 nM
25 | C[C@H](c1ccc(C#N)cc1)N(C)C(=O)[C@H]1CC[C@H]2[C@@H]3CC[C@@H]4C[C@@](O)(C(F)(F)F)CC[C@@H]4[C@H]3CC[C@]12C [Compound 69] | 100 to 500 nM
26 | CCN(CC)C(=O)[C@H]1CC[C@H]2[C@@H]3CC[C@@H]4C[C@](C)(O)CC[C@@H]4[C@H]3CC[C@]12C [Compound 2] | 100 to 500 nM
27 | C[C@@]1(O)CC[C@H]2[C@H](CC[C@@H]3[C@@H]2CC[C@]2(C)[C@@H](C(=O)NCC4CCCCC4)CC[C@@H]32)C1 [Compound 17] | 100 to 500 nM
28 | C[C@@]1(O)CC[C@H]2[C@H](CC[C@@H]3[C@@H]2CC[C@]2(C)[C@@H](C(=O)N4CCCc5ccccc54)CC[C@@H]32)C1 [Compound 35] | 100 to 500 nM
29 | C[C@@]1(O)CC[C@H]2[C@H](CC[C@@H]3[C@@H]2CC[C@]2(C)[C@@H](c4cccnc4)CC[C@@H]32)C1 [Compound 106] | 10 to 50 nM
30 | C[C@@]1(O)CC[C@H]2[C@H](CC[C@@H]3[C@@H]2CC[C@]2(C)[C@@H](C(=O)NC4CCCCC4)CC[C@@H]32)C1 [Compound 8] | 50 to 100 nM
31 | C[C@@]1(O)CC[C@H]2[C@H](CC[C@@H]3[C@@H]2CC[C@]2(C)[C@@H](C(=O)NCc4ccccc4)CC[C@@H]32)C1 [Compound 1] | 50 to 100 nM
32 | C[C@@]1(O)CC[C@H]2[C@H](CC[C@@H]3[C@@H]2CC[C@]2(C)[C@@H](C(=O)NCc4ccccn4)CC[C@@H]32)C1 [Compound 15] | 100 to 500 nM
33 | CCOC[C@@]1(O)CC[C@H]2[C@H](CC[C@@H]3[C@@H]2CC[C@]2(C)[C@@H](C(=O)N(C)[C@H](CC)c4ccc(F)cc4)CC[C@@H]32)C1 [Compound 56] | 100 to 500 nM
34 | CN(CC1CCCCC1)C(=O)[C@H]1CC[C@H]2[C@@H]3CC[C@@H]4C[C@](C)(O)CC[C@@H]4[C@H]3CC[C@]12C [Compound 26] | 100 to 500 nM
35 | COC[C@]12CC[C@@](C)(O)C[C@H]1CC[C@H]1[C@@H]3CC[C@H](C(=O)CN(C)c4ccccc4)[C@@]3(C)CC[C@@H]12 [Compound 75] | 10 to 50 nM
36 | CC(=O)N[C@H]1CC[C@H]2[C@@H]3CC[C@H]4C[C@](C)(O)CC[C@]4(C)[C@H]3CC[C@]12C [Compound 95] | > 500 nM
37 | CN([C@H]1CC[C@H]2[C@@H]3CC[C@H]4C[C@](C)(O)CC[C@]4(C)[C@H]3CC[C@]12C)S(C)(=O)=O [Compound 98] | > 500 nM
38 | C[C@@]1(O)CC[C@@]2(C)[C@@H](CC[C@@H]3[C@@H]2CC[C@]2(C)[C@@H](Nc4ccccc4)CC[C@@H]32)C1 [Compound 87] | 100 to 500 nM
39 | C[C@@]1(O)CC[C@H]2[C@H](CC[C@@H]3[C@@H]2CC[C@]2(C)[C@@H](C(=O)N4CCCOCC4)CC[C@@H]32)C1 [Compound 6] | > 500 nM
40 | CCOC[C@@]1(O)CC[C@H]2[C@H](CC[C@@H]3[C@@H]2CC[C@]2(C)[C@@H](C(=O)CNc4ccccc4)CC[C@@H]32)C1 [Compound 84] | 10 to 50 nM
41 | CCOC[C@@]1(O)CC[C@H]2[C@H](CC[C@@H]3[C@@H]2CC[C@]2(C)[C@@H](C(=O)N[C@H](CC)c4ccc(F)cc4)CC[C@@H]32)C1 [Compound 58] | > 500 nM
42 | COC[C@]12CC[C@](O)(C(F)(F)F)C[C@H]1CC[C@H]1[C@@H]3CC[C@H](C(=O)Nc4ccccc4)[C@@]3(C)CC[C@@H]12 [Compound 78] | 50 to 100 nM
43 | CO[C@H]1C[C@@]2(C)[C@@H](CC[C@H]3[C@@H]4CC[C@H]([N+](=O)[O-])[C@@]4(C)CC(=O)[C@@H]32)C[C@@H]1O [Compound 121] | 100 to 500 nM
44 | CC1(O)CC[C@H]2[C@@H]3CC[C@@H]4C[C@](C)(O)CC[C@@H]4[C@H]3CC[C@@]21C (stereo partly drawn) [Compound 126] | > 500 nM
45 | Cn1cc([C@H]2CC[C@H]3[C@@H]4CC[C@@H]5C[C@](C)(O)CC[C@@H]5[C@H]4CC[C@]23C)cn1 [Compound 111] | 50 to 100 nM
